Assay results reported in patent US20070207175A1, “Biaromatic compound activators of PPARgamma receptors and cosmetic/pharmaceutical compositions comprised thereof” (GALDERMA RESEARCH & DEVELOPMENT, priority 2004, published 2007).

Legend:
Type in all cases: cell-based
PPARγ = target: T1, PPARγ (Homo sapiens, UniProt P37231); assay: Crossed-curve PPAR transactivation assay (PPARγ); details: HeLN cells stably transfected with Gal-hPPARγ and luciferase reporter; Schild regression against reference agonist; n.a. means not active; read-out: PPARγ Kdapp
T1 sequence (P37231 238-505 limits assumed): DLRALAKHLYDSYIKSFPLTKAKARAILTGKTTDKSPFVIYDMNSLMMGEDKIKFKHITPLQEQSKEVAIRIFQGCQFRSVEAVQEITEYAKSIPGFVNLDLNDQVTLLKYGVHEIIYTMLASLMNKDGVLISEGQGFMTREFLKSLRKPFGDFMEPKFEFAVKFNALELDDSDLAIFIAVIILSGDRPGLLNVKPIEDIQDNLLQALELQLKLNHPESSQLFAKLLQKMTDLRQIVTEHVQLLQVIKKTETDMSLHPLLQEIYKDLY
Method: (§1) Activation of the PPAR receptors by an agonist (activator) in HeLN cells leads to the expression of a reporter gene, luciferase, which, in the presence of a substrate, generates light. The modulation of the PPAR receptors is measured by quantifying the luminescence produced after incubation of the cells in the presence of a reference agonist. The ligands will displace the agonist from its site. The measurement of the activity is performed by quantifying the light produced. This measurement makes it possible to determine the modulatory activity of the compounds according to the invention by the determination of the constant which is the affinity of the molecule for the PPAR receptor. Since this value can fluctuate depending on the basal activity and the expression of the receptor, it is referred to as apparent Kd (Kdapp in nM).
(§2) To determine this constant, “crossed curves” for the test product, against a reference agonist, are prepared using a 96-well plate: 10 concentrations of the test product plus a concentration 0 are arranged in a line, and 7 concentrations of the agonist plus a concentration 0 are arranged in a column. This is 88 measurement points for 1 product and 1 receptor. The remaining 8 wells are used for repeatability controls.
(§3) Measurements are also taken for total agonist controls with the same products.
(§4) The HeLN cell lines used are stable transfectants containing the plasmids ERE-βGlob-Luc-SV-Neo (reporter gene) and PPAR (α, δ, γ) Gal-hPPAR. These cells are seeded in 96-well plates at the rate of 10,000 cells per well in 100 μl of DMEM medium without phenol red and supplemented with 10% of defatted calf serum. The plates are then incubated for 16 hours at 37° C. and 7% CO2.
(§5) The various dilutions of the test products and of the reference ligand are added at the rate of 5 μl per well. The plates are subsequently incubated for 18 hours at 37° C. and 7% CO2. The culture medium is removed by turning over and 100 μl of a 1:1 PBS/luciferin mixture are added to each well. After 5 minutes, the plates are read using the luminescence reader.

PPARα = target: T2, PPARα (Homo sapiens, UniProt Q07869); assay: Crossed-curve PPAR transactivation assay (PPARα); details: HeLN cells stably transfected with Gal-hPPARα and luciferase reporter; Schild regression against reference agonist; n.a. means not active; read-out: PPARα Kdapp
T2 sequence (Q07869 200-468 limits assumed): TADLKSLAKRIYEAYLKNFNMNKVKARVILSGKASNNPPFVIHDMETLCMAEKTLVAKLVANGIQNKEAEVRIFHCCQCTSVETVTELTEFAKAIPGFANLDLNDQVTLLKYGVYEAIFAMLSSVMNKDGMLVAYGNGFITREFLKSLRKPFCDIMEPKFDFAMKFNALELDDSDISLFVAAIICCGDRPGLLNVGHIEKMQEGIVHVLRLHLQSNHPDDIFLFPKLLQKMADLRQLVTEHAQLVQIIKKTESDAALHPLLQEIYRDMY
Method: as §1
To determine this constant, “crossed curves” for the test product, against a reference agonist, are prepared using a 96-well plate: 10 concentrations of the test product plus a concentration 0 are arranged in a line, and 7 concentrations of the agonist plus a concentration 0 are arranged in a column. This is 88 measurement points for 1 product and 1 receptor. […]
The various dilutions of the test products and of the reference ligand are added at the rate of 5 μl per well. […] After 5 minutes, the plates are read using the luminescence reader.

PPARδ = target: T3, PPARδ (Homo sapiens, UniProt Q03181); assay: Crossed-curve PPAR transactivation assay (PPARδ); details: HeLN cells stably transfected with Gal-hPPARδ and luciferase reporter; Schild regression against reference agonist; n.a. means not active; read-out: PPARδ Kdapp
T3 sequence (Q03181 211-441 limits assumed): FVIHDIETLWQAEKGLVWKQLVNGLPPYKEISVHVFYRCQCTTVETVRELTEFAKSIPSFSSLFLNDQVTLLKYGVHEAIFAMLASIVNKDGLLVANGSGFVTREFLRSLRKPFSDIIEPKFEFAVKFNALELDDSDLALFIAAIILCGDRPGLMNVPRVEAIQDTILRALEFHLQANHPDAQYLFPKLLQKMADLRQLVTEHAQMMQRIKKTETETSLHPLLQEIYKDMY
Method: as §1, §2, §3, §4, §5

| Compound | Kd (PPARγ) | Kd (PPARα) | Kd (PPARδ) |
| --- | --- | --- | --- |
| CCCCCCCC(=O)N(C)Cc1cccc(-c2ccc(/C=C/C(=O)O)cc2)c1 [Example 1, 3-(3′-[((methyl)(octanoyl)amino)methyl]biphenyl-4-yl)acrylic acid] | 500 nM | – | – |
| CCCCCCCC(=O)N(C)Cc1cccc(-c2ccc(CCC(=O)O)cc2)c1 [Example 2, 3-{3′-[((methyl)(octanoyl)amino)methyl]biphenyl-4-yl}propanoic acid] | 120 nM | – | – |
| CCCCCCCC(=O)N(C)Cc1cccc(-c2ccc(/C=C/C(=O)O)c(F)c2)c1 [Example 3, 3-{3-fluoro-3′-[((methyl)(octanoyl)amino)methyl]biphenyl-4-yl}acrylic acid] | 60 nM | – | – |
| CCCCCCCC(=O)N(C)Cc1cccc(-c2ccc(CCC(=O)O)c(F)c2)c1 [Example 4, 3-[3-fluoro-3′-[((methyl)(octanoyl)amino)methyl]biphenyl-4-yl)propanoic acid] | 250 nM | – | – |
| CCCCCCCC(=O)NCc1cccc(-c2ccc(CCC(=O)O)cc2)c1 [Example 6, 3-[3′-((octanoylamino)methyl)biphenyl-4-yl]propanoic acid] | 4000 nM | – | – |
| CCCCCCCC(=O)N(C)Cc1cccc(-c2ccc(CCC(=O)O)c(O)c2)c1 [Example 7, 3-{3-hydroxy-3′-[((methyl)(octanoyl)amino)methyl]biphenyl-4-yl}propanoic acid] | 4000 nM | – | – |
| CCCCCCCC(=O)N(C)Cc1cccc(-c2ccc(CCC(=O)O)cc2OCCCC)c1 [Example 8, 3-{2-butoxy-3′-[((methyl)(octanoyl)amino)methyl]biphenyl-4-yl}propanoic acid] | 1 nM | – | – |
| CCCCCC(=O)N(C)Cc1cccc(-c2ccc(CCC(=O)O)cc2OCCCC)c1 [Example 9, 3-{2-butoxy-3′-[((hexanoyl)(methyl)amino)methyl]biphenyl-4-yl}propanoic acid] | 4 nM | 4000 nM | 4000 nM |
| CCCCOc1cc(CCC(=O)O)ccc1-c1cccc(CN(C)C(=O)CCCC)c1 [Example 10, 3-{2-butoxy-3′-[((methyl)(pentanoyl)amino)methyl]biphenyl-4-yl}propanoic acid] | 4 nM | – | 4000 nM |
| CCCCCCC(=O)N(C)Cc1cccc(-c2ccc(CCC(=O)O)cc2OCCCC)c1 [Example 11, 3-{2-butoxy-3′-[((heptanoyl)(methyl)amino)methyl]biphenyl-4-yl}propanoic acid] | 1 nM | 500 nM | 4000 nM |
| CCCCOc1cc(CCC(=O)O)ccc1-c1cccc(CN(C)C(=O)c2ccc(OCC)cc2)c1 [Example 12, 3-(2-butoxy-3′-{[(4-ethoxybenzoyl)(methyl)amino]methyl}biphenyl-4-yl)propanoic acid] | 0.25 nM | – | – |
| CCCCOc1ccc(C(=O)N(C)Cc2cccc(-c3ccc(CCC(=O)O)cc3OCCCC)c2)cc1 [Example 13, 3-(2-butoxy-3′-{[(4-butoxybenzoyl)(methyl)amino]methyl}biphenyl-4-yl)propanoic acid] | 1 nM | – | – |
| CCCCOc1cc(CCC(=O)O)ccc1-c1cccc(CN(C)C(=O)c2ccccc2)c1 [Example 14, 3-{3′-[((benzoyl)(methyl)amino)methyl]-2-butoxybiphenyl-4-yl}propanoic acid] | 8 nM | – | – |
| CCCCOc1cc(CCC(=O)O)ccc1-c1cccc(CN(C)C(=O)c2ccc(OC)cc2)c1 [Example 15, 3-(2-butoxy-3′-{[(4-methoxybenzoyl)(methyl)amino]methyl}biphenyl-4-yl)propanoic acid] | 0.5 nM | – | 4000 nM |
| CCCCOc1cc(CCC(=O)O)ccc1-c1cccc(CN(C)C(=O)c2cccc(OC)c2)c1 [Example 16, 3-(2-butoxy-3′-{[(3-methoxybenzoyl)(methyl)amino]methyl}biphenyl-4-yl)propanoic acid] | 4 nM | – | 4000 nM |
